Measurements as given in patent publication US20260224588A1, “BENZODIAZEPINONE-DERIVED INHIBITORS OF EGFR AND HER2” (The Research Foundation for the State University of New York, priority 2023, published 2026).
“Also recorded” adds a separate entry of the source.

Columns and labels:
[1] = molecular target: T1, ABL1(H396P)-phosphorylated (Homo sapiens, UniProt P00519, H396P); test: KINOMEscan; assay type: binding; details: 1 μM of compound 4; read-out: POC
T1 construct: purchased Eurofins DiscoverX Corporation

ACVR2B = ACVR2B (Homo sapiens, UniProt Q13705); test: KINOMEscan; assay type: binding; details: 1 μM of compound 4; read-out: POC
AURKC = AURKC (Homo sapiens, UniProt Q9UQB9); test: KINOMEscan; assay type: binding; details: 1 μM of compound 4; read-out: POC
CDK4 = CDK4 (Homo sapiens, UniProt P11802); test: KINOMEscan; assay type: binding; details: 1 μM of compound 4; read-out: POC
CDK4-cyclinD3 = CDK4-cyclinD3 (Homo sapiens, UniProt P11802); test: KINOMEscan; assay type: binding; details: 1 μM of compound 4; read-out: POC
DAPK2 = DAPK2 (Homo sapiens, UniProt Q9UIK4); test: KINOMEscan; assay type: binding; details: 1 μM of compound 4; read-out: POC
FGFR1 = molecular target: T2, FGFR1 (Homo sapiens, UniProt P11362); test: KINOMEscan; assay type: binding; details: 1 μM of compound 4; read-out: POC
T2 construct: purchased Eurofins DiscoverX Corporation

FGR = molecular target: T3, FGR (Homo sapiens, UniProt P09769); test: KINOMEscan; assay type: binding; details: 1 μM of compound 4; read-out: POC
T3 construct: purchased Eurofins DiscoverX Corporation

FLT3(D835Y) = molecular target: T4, FLT3(D835Y) (Homo sapiens, UniProt P36888, D835Y); test: KINOMEscan; assay type: binding; details: 1 μM of compound 4; read-out: POC
T4 construct: purchased Eurofins DiscoverX Corporation

GSK3B = molecular target: T5, GSK3B (Homo sapiens, UniProt P49841); test: KINOMEscan; assay type: binding; details: 1 μM of compound 4; read-out: POC
T5 construct: purchased Eurofins DiscoverX Corporation

KIT = KIT (Homo sapiens, UniProt P10721); test: KINOMEscan; assay type: binding; details: 1 μM of compound 4; read-out: POC
KIT(A829P) = KIT(A829P) (Homo sapiens, UniProt P10721, A829P); test: KINOMEscan; assay type: binding; details: 1 μM of compound 4; read-out: POC
LZK = LZK (Homo sapiens, UniProt O43283); test: KINOMEscan; assay type: binding; details: 1 μM of compound 4; read-out: POC
MEK4 = MEK4 (Homo sapiens, UniProt P45985); test: KINOMEscan; assay type: binding; details: 1 μM of compound 4; read-out: POC
MEK6 = MEK6 (Homo sapiens, UniProt P52564); test: KINOMEscan; assay type: binding; details: 1 μM of compound 4; read-out: POC
MTOR = MTOR (Homo sapiens, UniProt P42345); test: KINOMEscan; assay type: binding; details: 1 μM of compound 4; read-out: POC
MYO3A = MYO3A (Homo sapiens, UniProt Q8NEV4); test: KINOMEscan; assay type: binding; details: 1 μM of compound 4; read-out: POC
NDR1 = NDR1 (Homo sapiens, UniProt Q15208); test: KINOMEscan; assay type: binding; details: 1 μM of compound 4; read-out: POC
PAK6 = molecular target: T6, PAK6 (Homo sapiens, UniProt Q9NQU5); test: KINOMEscan; assay type: binding; details: 1 μM of compound 4; read-out: POC
T6 construct: purchased Eurofins DiscoverX Corporation (KINOMEscan)

PAK7 = molecular target: T7, PAK7 (Homo sapiens, UniProt Q9P286); test: KINOMEscan; assay type: binding; details: 1 μM of compound 4; read-out: POC
T7 construct: purchased Eurofins DiscoverX Corporation (KINOMEscan)

PFTAIRE2 = molecular target: T8, PFTAIRE2 (Homo sapiens, UniProt Q96Q40); test: KINOMEscan; assay type: binding; details: 1 μM of compound 4; read-out: POC
T8 construct: purchased Eurofins DiscoverX Corporation (KINOMEscan)

PIK3C2G = PIK3C2G (Homo sapiens, UniProt O75747); test: KINOMEscan; assay type: binding; details: 1 μM of compound 4; read-out: POC
PIK3CA(E545K) = PIK3CA(E545K) (Homo sapiens, UniProt P42336, E545K); test: KINOMEscan; assay type: binding; details: 1 μM of compound 4; read-out: POC
PIM3 = PIM3 (Homo sapiens, UniProt Q86V86); test: KINOMEscan; assay type: binding; details: 1 μM of compound 4; read-out: POC
PIP5K1C = PIP5K1C (Homo sapiens, UniProt O60331); test: KINOMEscan; assay type: binding; details: 1 μM of compound 4; read-out: POC
PKAC-beta = PKAC-beta (Homo sapiens, UniProt P22694); test: KINOMEscan; assay type: binding; details: 1 μM of compound 4; read-out: POC
PLK2 = PLK2 (Homo sapiens, UniProt Q9NYY3); test: KINOMEscan; assay type: binding; details: 1 μM of compound 4; read-out: POC
PRKD3 = PRKD3 (Homo sapiens, UniProt O94806); test: KINOMEscan; assay type: binding; details: 1 μM of compound 4; read-out: POC
ROCK2 = molecular target: T9, ROCK2 (Homo sapiens, UniProt O75116); test: KINOMEscan; assay type: binding; details: 1 μM of compound 4; read-out: POC
T9 construct: purchased Eurofins DiscoverX Corporation (KINOMEscan screening service)

TRKB = molecular target: T10, TRKB (Homo sapiens, UniProt Q16620); test: KINOMEscan; assay type: binding; details: 1 μM of compound 4; read-out: POC
T10 construct: purchased Eurofins DiscoverX Corporation

[2] = molecular target: T11, TYK2(JH1domain-catalytic) (Homo sapiens, UniProt P29597); test: KINOMEscan; assay type: binding; details: 1 μM of compound 4; read-out: POC
T11 construct: TYK2(JH1domain-catalytic); purchased Eurofins DiscoverX

YSK4 = molecular target: T12, YSK4 (Homo sapiens, UniProt Q56UN5); test: KINOMEscan; assay type: binding; details: 1 μM of compound 4; read-out: POC
T12 construct: purchased Eurofins DiscoverX

[3] = test system: EGFR (delE746-A750) in HCC827 cells; test: Western blotting of EGFR phosphorylation; assay type: cell-based, human; details: 6 hours treatment
Protocol: FIG. 2. […] All experiments performed after 6 hours treatments of inhibitors or DMSO controls and Western blots are representative of at least three independent experiments.
Western blotting. Cells were collected and lysed with lysis buffer (5M NaCl, 1M TRIS pH 8.0, 10% SDS, 10% Triton X-100 and a tablet of protease inhibitors) and processed for Western blotting analysis. Primary antibodies used; phospho-EGFR (Tyr1068; #2234, 1:1,000), EGFR (#4267; 1:1,000), phospho-AKT (Ser473; #4060, 1:1,000), AKT (#9272, 1:1,000), phospho-ERK1/2 (Thr202/Tyr204; #4370, 1:1,000), and ERK1/2 (#4695, 1:1,000) antibodies; were purchased from Cell Signaling Technology. Secondary Goat anti-rabbit IgG starbright blue 700 and Anti-tubulin hFAB Rhodamine Tubulin were purchased from Bio-rad.

T5 sequence (P49841 whole entry): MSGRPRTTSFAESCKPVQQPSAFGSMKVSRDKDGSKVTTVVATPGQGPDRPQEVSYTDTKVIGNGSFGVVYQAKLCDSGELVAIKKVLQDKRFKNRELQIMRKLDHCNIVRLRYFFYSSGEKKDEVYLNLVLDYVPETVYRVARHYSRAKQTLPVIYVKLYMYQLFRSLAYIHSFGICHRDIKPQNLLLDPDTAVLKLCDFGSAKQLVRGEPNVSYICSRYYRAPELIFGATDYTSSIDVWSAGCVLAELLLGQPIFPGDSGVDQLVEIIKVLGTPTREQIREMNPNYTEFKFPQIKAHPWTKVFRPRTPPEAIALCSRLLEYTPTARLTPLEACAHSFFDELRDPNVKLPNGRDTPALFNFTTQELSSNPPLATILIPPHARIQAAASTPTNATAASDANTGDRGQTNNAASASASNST
T9 sequence (O75116 whole entry): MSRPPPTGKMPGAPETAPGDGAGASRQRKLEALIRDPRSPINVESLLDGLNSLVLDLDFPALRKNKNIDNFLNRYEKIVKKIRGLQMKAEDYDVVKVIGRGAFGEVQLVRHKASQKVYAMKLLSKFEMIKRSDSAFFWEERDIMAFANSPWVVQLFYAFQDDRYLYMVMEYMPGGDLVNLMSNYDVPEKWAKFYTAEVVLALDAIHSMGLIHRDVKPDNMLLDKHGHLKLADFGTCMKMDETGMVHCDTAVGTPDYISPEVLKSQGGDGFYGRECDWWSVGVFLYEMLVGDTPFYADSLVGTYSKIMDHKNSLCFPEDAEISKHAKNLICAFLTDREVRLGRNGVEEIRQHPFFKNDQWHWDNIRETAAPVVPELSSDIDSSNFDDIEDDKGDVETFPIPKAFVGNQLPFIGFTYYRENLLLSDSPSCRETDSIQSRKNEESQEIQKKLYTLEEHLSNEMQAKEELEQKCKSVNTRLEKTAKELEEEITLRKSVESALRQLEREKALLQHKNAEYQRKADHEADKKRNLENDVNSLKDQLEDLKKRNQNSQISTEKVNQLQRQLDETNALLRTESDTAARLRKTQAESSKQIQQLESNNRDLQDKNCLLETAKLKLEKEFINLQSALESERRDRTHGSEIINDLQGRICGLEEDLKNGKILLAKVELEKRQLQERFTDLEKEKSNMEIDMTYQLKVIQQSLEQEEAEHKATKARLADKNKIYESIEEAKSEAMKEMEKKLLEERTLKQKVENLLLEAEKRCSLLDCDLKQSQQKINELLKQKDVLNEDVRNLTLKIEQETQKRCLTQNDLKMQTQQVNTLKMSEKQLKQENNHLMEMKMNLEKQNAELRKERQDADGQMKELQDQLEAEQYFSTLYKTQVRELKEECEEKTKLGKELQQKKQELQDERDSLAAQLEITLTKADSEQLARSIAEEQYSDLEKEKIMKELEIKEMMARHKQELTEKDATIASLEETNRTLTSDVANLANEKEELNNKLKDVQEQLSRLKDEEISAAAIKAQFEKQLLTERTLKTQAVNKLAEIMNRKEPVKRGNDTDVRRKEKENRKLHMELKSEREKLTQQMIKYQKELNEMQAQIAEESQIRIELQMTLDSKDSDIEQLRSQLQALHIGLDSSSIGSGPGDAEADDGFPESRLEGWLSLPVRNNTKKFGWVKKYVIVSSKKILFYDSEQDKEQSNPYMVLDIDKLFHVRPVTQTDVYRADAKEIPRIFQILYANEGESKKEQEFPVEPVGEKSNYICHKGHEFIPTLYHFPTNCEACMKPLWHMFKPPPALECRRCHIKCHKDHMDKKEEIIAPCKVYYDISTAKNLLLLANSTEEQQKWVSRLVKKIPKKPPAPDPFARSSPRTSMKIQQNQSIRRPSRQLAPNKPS
Sequence of PRKD3 (O94806 whole entry): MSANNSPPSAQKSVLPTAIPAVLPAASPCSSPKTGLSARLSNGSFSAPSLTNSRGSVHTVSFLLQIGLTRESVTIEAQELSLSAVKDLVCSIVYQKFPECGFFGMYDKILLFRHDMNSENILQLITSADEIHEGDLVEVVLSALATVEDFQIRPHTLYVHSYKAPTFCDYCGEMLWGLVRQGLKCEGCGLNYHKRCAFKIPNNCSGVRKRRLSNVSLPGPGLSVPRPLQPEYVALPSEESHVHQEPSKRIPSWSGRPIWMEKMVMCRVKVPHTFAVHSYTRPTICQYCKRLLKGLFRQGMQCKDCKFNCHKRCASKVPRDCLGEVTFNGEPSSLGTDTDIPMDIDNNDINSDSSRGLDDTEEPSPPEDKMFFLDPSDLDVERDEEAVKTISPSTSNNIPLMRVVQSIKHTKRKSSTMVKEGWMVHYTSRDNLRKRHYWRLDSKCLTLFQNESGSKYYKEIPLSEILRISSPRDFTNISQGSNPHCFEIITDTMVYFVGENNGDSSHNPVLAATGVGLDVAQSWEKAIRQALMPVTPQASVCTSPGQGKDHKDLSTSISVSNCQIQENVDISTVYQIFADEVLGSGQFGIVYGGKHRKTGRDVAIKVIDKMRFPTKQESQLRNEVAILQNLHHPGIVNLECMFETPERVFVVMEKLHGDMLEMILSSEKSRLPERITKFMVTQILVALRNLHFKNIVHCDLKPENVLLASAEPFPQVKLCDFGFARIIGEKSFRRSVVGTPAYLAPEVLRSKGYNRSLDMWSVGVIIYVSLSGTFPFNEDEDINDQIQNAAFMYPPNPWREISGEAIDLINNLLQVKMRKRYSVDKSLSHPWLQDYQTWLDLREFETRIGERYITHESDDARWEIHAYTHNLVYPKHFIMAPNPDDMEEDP
Sequence of MEK6 (P52564 whole entry): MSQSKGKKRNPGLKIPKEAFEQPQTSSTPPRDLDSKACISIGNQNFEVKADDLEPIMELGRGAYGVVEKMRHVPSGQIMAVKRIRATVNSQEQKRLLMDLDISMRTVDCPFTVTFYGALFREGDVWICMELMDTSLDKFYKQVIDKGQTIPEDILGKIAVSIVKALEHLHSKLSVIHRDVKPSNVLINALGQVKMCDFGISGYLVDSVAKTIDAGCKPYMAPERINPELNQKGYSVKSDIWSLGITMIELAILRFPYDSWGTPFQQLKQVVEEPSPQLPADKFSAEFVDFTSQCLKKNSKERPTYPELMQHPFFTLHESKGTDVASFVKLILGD
T12 sequence (Q56UN5 whole entry): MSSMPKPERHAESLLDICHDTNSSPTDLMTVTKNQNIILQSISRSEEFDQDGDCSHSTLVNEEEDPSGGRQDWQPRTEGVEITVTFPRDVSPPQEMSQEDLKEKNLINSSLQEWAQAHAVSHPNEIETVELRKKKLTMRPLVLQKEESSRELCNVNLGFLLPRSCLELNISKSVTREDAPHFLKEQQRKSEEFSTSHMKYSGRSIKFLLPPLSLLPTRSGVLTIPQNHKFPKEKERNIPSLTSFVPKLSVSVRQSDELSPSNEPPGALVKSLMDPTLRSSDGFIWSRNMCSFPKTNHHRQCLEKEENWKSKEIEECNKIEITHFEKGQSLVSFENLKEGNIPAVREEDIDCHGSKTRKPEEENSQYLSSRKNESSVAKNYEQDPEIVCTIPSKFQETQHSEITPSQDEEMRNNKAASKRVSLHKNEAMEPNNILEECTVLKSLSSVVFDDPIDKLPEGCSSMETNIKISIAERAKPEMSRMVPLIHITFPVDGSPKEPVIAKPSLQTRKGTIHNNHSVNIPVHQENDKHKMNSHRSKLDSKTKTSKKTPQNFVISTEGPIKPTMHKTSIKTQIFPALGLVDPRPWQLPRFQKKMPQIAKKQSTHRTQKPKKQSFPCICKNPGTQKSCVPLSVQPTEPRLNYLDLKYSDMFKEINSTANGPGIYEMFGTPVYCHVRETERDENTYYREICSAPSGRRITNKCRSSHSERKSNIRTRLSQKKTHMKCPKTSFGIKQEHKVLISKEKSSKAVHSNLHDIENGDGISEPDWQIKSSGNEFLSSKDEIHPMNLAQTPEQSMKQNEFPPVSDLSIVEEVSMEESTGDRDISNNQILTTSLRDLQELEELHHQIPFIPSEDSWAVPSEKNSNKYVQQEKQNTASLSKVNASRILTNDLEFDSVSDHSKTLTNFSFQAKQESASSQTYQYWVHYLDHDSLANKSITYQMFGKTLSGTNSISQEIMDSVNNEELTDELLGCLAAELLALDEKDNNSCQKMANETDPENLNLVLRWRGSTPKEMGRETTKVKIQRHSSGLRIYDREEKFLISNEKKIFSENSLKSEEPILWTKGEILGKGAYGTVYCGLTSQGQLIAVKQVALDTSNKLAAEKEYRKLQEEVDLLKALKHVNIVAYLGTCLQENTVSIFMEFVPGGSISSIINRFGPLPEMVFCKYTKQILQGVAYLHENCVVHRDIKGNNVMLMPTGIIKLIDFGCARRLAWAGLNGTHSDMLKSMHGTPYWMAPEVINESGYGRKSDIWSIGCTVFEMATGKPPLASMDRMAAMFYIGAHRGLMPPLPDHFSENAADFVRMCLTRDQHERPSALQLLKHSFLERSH
Sequence of MEK4 (P45985 whole entry): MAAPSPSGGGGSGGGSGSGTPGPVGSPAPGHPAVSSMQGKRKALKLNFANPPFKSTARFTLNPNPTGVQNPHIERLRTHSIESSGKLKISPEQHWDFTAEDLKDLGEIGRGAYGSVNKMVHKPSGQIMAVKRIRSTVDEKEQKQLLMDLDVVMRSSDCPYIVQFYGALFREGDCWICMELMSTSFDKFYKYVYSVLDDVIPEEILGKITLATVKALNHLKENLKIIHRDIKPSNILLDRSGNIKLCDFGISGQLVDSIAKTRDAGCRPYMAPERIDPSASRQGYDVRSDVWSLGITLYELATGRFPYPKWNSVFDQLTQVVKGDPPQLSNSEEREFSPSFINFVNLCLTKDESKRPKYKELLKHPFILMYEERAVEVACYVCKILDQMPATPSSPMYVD
Sequence of AURKC (Q9UQB9 whole entry): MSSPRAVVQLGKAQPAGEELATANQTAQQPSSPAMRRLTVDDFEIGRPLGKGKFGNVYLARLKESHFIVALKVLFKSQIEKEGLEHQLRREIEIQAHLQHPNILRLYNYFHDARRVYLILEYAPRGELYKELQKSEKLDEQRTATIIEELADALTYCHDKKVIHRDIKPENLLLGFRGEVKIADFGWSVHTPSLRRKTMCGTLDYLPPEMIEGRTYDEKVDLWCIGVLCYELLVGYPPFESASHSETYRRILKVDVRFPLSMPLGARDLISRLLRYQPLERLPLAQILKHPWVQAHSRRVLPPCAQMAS

## C=CC(=O)Nc1ccc(OC)c(Nc2cc(-c3[nH]c(CC)nc3-c3cccc(NC(=O)c4cccc5c4NC(=O)c4ccccc4N5)c3)ccn2)c1 [Compound 4, N-(3-(5-(2-((5-Acrylamido-2-methoxyphenyl)amino)pyridin-4-yl)-2-ethyl-1H-imidazol-4-yl)phenyl)-11-oxo-10,11-dihydro-5H-dibenzo[b,e][1,4]diazepine-9-carboxamide]
[1]
  remaining binding at 1 µM: 74%
ACVR2B
  remaining binding at 1 µM: 72%
AURKC
  remaining binding at 1 µM: 100%
CDK4
  remaining binding at 1 µM: 100%
CDK4-cyclinD3
  remaining binding at 1 µM: 49%
DAPK2
  remaining binding at 1 µM: 100%
FGFR1
  remaining binding at 1 µM: 86%
FGR
  remaining binding at 1 µM: 19%
FLT3(D835Y)
  remaining binding at 1 µM: 96%
GSK3B
  remaining binding at 1 µM: 100%
KIT
  remaining binding at 1 µM: 100%
KIT(A829P)
  remaining binding at 1 µM: 56%
LZK
  remaining binding at 1 µM: 90%
MEK4
  remaining binding at 1 µM: 100%
MEK6
  remaining binding at 1 µM: 73%
MTOR
  remaining binding at 1 µM: 100%
MYO3A
  remaining binding at 1 µM: 14%
NDR1
  remaining binding at 1 µM: 73%
PAK6
  remaining binding at 1 µM: 93%
PAK7
  remaining binding at 1 µM: 77%
PFTAIRE2
  remaining binding at 1 µM: 84%
PIK3C2G
  remaining binding at 1 µM: 50%
PIK3CA(E545K)
  remaining binding at 1 µM: 100%
PIM3
  remaining binding at 1 µM: 100%
PIP5K1C
  remaining binding at 1 µM: 78%
PKAC-beta
  remaining binding at 1 µM: 98%
PLK2
  remaining binding at 1 µM: 100%
PRKD3
  remaining binding at 1 µM: 67%
ROCK2
  remaining binding at 1 µM: 94%
TRKB
  remaining binding at 1 µM: 100%
[2]
  remaining binding at 1 µM: 91%
YSK4
  remaining binding at 1 µM: 88%
[3]
  EGFR phosphorylation (Western blot): similarly active; also recorded: effectively ablates EGFR (delE746-A750) phosphorylation
